Assay type in all cases: cell-based
One data set concerns HeLaLuc705 cells. The data set is described as follows: SSO-mediated luciferase induction assay. Here is the method: FIG. 1B-1E. Effects with SSOs. FIG. 1B Structure of UNC2383. […] The cells were then rinsed and incubation continued for an additional 4 h in DMEM+10% FBS. Cells were rinsed twice in PBS and luciferase activity (RLU) and cell protein determined. The larger round symbol indicates the MM oligonucleotide. Means+/−SE. N=3. […] The cells were further incubated and then luciferase and protein determined. The total time of incubation in each case was 6 h. […] Means+/−SE. N=3.
(§1) FIG. 3. Effect and Cytotoxicity of Analogs. The effect of selected UNC2383 analogs on luciferase induction by SSO623 was measured as described in Methods and in the legend of FIG. 1B-1E. Cytotoxicity was measured using the Alamar Blue method as in FIG. 1E. MM10 is the effect of 10 uM compound in the presence of a mismatched oligonucleotide. Means and SE. N=3.
HeLaLuc705 cells are stably transfected with a firefly luciferase reporter whose coding sequence is interrupted by an abnormal intron. […] NIH-3T3-MDR cells are stably transfected with a human MDR1 cDNA coding for the P-glycoprotein (Pgp). We have described the maintenance and use of these cell lines elsewhere. (18, 20)
SSO-mediated luciferase induction assays were conducted as previously described. (18) In short, HeLaLuc705 cells in 24 well culture plates were preincubated with SSO623 followed by brief treatment with the small molecule; at intervals thereafter, luciferase activity and protein content were determined. […] (30)

The nature of data set [1]: Alamar Blue cytotoxicity assay. As to conditions: human, HeLa Luc705 cells; Alamar Blue cytotoxicity; read-out: TC50. Here is the method:
(§2) FIG. 1B-1E. Effects with SSOs. FIG. 1B Structure of UNC2383. FIG. 1C Compound 2383 enhances SSO effects. Cells were incubated in 24-well plates with 100 nM SSO623 or its mismatched control (MM) for 16 h in DMEM+10% FBS, rinsed and then treated with various concentrations of 2383 for 2 h. The cells were then rinsed and incubation continued for an additional 4 h in DMEM+10% FBS. Cells were rinsed twice in PBS and luciferase activity (RLU) and cell protein determined. The larger round symbol indicates the MM oligonucleotide. Means+/−SE. N=3. FIG. 1D Kinetics of 2383 action. Cells were preloaded with 100 nM SSO623 and then exposed to 2383 for various periods after which the compound was removed. The cells were further incubated and then luciferase and protein determined. The total time of incubation in each case was 6 h. FIG. 1E Cytotoxicity of 2383. HeLa Luc705 or NIH-3T3-MDR cells were exposed to 2383 as in (FIG. 1C) then incubated for 24 h in DMEM plus 10% FBS and tested using the Alamar Blue cytotoxicity assay. Means+/−SE. N=3.
as §1
(§3) SSO-mediated luciferase induction assays were conducted as previously described. (18) In short, HeLaLuc705 cells in 24 well culture plates were preincubated with SSO623 followed by brief treatment with the small molecule; at intervals thereafter, luciferase activity and protein content were determined. ASO mediated inhibition of MDR1 gene expression utilized an Alexa 488 labeled anti-P-glycoprotein antibody and flow cytometry to measure Pgp expression as described. (20) The anti-MDR1 sequence is 5′-CCATCccgacctcgcGCTCC-3′(SEQ ID NO: 5) (all phosphorothiopate with 2-O-Me residues in capitals). Cytotoxicity of 2383 was monitored using the Alamar Blue assay. (30)
On the technique in general: Alamar Blue is a resazurin reagent that responds to reducing activity.

The subject of a further data set is HeLa Luc705 cells. The data set is described as follows: Alamar Blue cytotoxicity assay. As to conditions: ratio of cytotoxicity TC50 to luciferase induction EC50. Here is the method: as §2, §1, §3
The test system of data set [2] is lysosomes of HeLa Luc 705 cells. In words: Lysotracker Red accumulation assay. As to conditions: 10 μM. Here is the method:
FIG. 9A-9D. Effects on lysosomes. FIG. 9A: Lysotracker uptake. Accumulation of Lysotracker Red in HeLa Luc 705 cells was measured after a 2 h exposure of cells to the indicated concentrations of various analogs. The lysosomotropic compound chloroquine was included as a positive control. Means of triplicate determinations are shown. The color-coded numbers refer to the fold increase in luciferase induction attained by the concentration of analog associated with the adjacent symbol on the graph. The numbers are taken from the data of FIG. 1C for UNC2383 and FIG. 4 for UNC4267, UNC4258, and UNC4428. FIG. 9B: LT50 vs TC50. […] Nonlinear regression was calculated using Prism software. The R^2 value for the plot is 0.91. FIG. 9C: 2383 vs chloroquine; luciferase induction. HeLa Luc705 cells were exposed to SSO623 and then treated with various concentrations of UNC2383 or chloroquine for 2 h and then tested for luciferase induction following the methods described in FIG. 1B-FIG. 1E. […]
The integrity of lysosomes was evaluated using the fluorescent probe Lysotracker Red (Thermo Fisher). […] Cells were thoroughly rinsed in PBS, lysed in 0.2% TX 100, and centrifuged briefly at 4000 rpm, and 100 uL of the supernate was distributed to black 96 well plates for analysis of fluorescence using a FLUOstar Omega 96 well microplate reader.

Data on one compound can be found in patent US11040056B2, “Benzimidazoles that enhance the activity of oligonucleotides” (The University of North Carolina at Chapel Hill, priority 2018, dated 2021).

On to `O=C(Nc1nc2cc(Cl)c(Cl)cc2n1CCN1CCCC1)c1cc2cc(Cl)ccc2o1` [UNC4428], for which the “enhancement of SSO actions” value in the data set on HeLaLuc705 cells (10 μM) is listed as “quite strongly enhanced”. The compound further yielded an EC50 in the data set on HeLaLuc705 cells (luciferase induction by SSO623) of 10 µM. Also, the CC50 at 2 h in data set [1] turned out to be 50 µM. Besides, in the data set with HeLa Luc705 cells, the TC50/EC50 amounted to 5. The “effect on lysotracker accumulation” value in data set [2] is reported as “little effect”.

Broadly, the EC50 is the concentration giving half of the maximal effect.
